Measured values: PubChem BioAssay AID2060511 (Molecular Pharmacology Branch, DTP, NCI, 2025)

System: 422866-222-R5-J1-PDC spheroids with HUVEC/MSC, viability
Assay: Anticancer human tumor 422866-222-R5-J1-PDC patient-derived pancreatic adenocarcinoma cell line growth inhibition [GQUAD]
Settings: for IC50: curve of first compound; for viability, T/C: stronger effect = lower value; active = viability on the fitted dose curve at most 10% of control; inactive = the rest
Summary of the method: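 Viability of tumor cells grown as complex spheroids with endothelial and stromal cells, exposed to drug combinations. Top concentration at or near clinical Cmax (else 10 microM), diluted in half-log increments.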

[1] = second compound 0.0316 µM, first compound 0.0316 µM
[2] = second compound 0.0316 µM, first compound 0.1 µM
[3] = second compound 0.0316 µM, first compound 0.316 µM
[4] = second compound 0.0316 µM, first compound 1 µM
[5] = second compound 0.0316 µM, first compound 3.16 µM
[6] = second compound 0.0316 µM, first compound 10 µM
[7] = second compound 0.1 µM, first compound 0.0316 µM
[8] = second compound 0.1 µM, first compound 0.1 µM
[9] = second compound 0.1 µM, first compound 0.316 µM
[10] = second compound 0.1 µM, first compound 1 µM
[11] = second compound 0.1 µM, first compound 3.16 µM
[12] = second compound 0.1 µM, first compound 10 µM
[13] = second compound 0.316 µM, first compound 0.0316 µM
[14] = second compound 0.316 µM, first compound 0.1 µM
[15] = second compound 0.316 µM, first compound 0.316 µM
[16] = second compound 0.316 µM, first compound 1 µM
[17] = second compound 0.316 µM, first compound 3.16 µM
[18] = second compound 0.316 µM, first compound 10 µM
[19] = second compound 1 µM, first compound 0.0316 µM
[20] = second compound 1 µM, first compound 0.1 µM
[21] = second compound 1 µM, first compound 0.316 µM
[22] = second compound 1 µM, first compound 1 µM
[23] = second compound 1 µM, first compound 3.16 µM
[24] = second compound 1 µM, first compound 10 µM
[25] = second compound 3.16 µM, first compound 0.0316 µM
[26] = second compound 3.16 µM, first compound 0.1 µM
[27] = second compound 3.16 µM, first compound 0.316 µM
[28] = second compound 3.16 µM, first compound 1 µM
[29] = second compound 3.16 µM, first compound 3.16 µM
[30] = second compound 3.16 µM, first compound 10 µM
[31] = second compound 10 µM, first compound 0.0316 µM
[32] = second compound 10 µM, first compound 0.1 µM
[33] = second compound 10 µM, first compound 0.316 µM
[34] = second compound 10 µM, first compound 1 µM
[35] = second compound 10 µM, first compound 3.16 µM
[36] = second compound 10 µM, first compound 10 µM
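Note: spheroids exposed to compounds for seven days before reading.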
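Throughout, for viability, T/C: percent viability relative to DMSO vehicle control taken as 100%.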

COc1ncnc(C2CC2)c1-c1ncc2cnn(Cc3ccc(-c4nc(C(F)(F)F)cn4C(C)C)cc3)c2n1 + CN(C)c1ccc(Nc2c3ccc(NC(=O)CCN4CCCC4)cc3nc3cc(NC(=O)CCN4CCCC4)ccc23)cc1
inactive: viability, T/C [1] 92.7% | viability, T/C [2] 88.3% | viability, T/C [3] 124% | viability, T/C [4] 93% | viability, T/C [5] 90% | viability, T/C [6] 104% | viability, T/C [7] 116% | viability, T/C [8] 104% | viability, T/C [9] 109% | viability, T/C [10] 94.9% | viability, T/C [11] 100% | viability, T/C [12] 100% | viability, T/C [13] 104% | viability, T/C [14] 89.8% | viability, T/C [15] 100% | viability, T/C [16] 94.3% | viability, T/C [17] 106% | viability, T/C [18] 100% | viability, T/C [19] 90.7% | viability, T/C [20] 92.2% | viability, T/C [21] 101% | viability, T/C [22] 90.9% | viability, T/C [23] 97.1% | viability, T/C [24] 84.5% | viability, T/C [25] 85.8% | viability, T/C [26] 102% | viability, T/C [27] 101% | viability, T/C [28] 92.9% | viability, T/C [29] 103% | viability, T/C [30] 69.9% | viability, T/C [31] 98.6% | viability, T/C [32] 109% | viability, T/C [33] 104% | viability, T/C [34] 69.3% | viability, T/C [35] 86.8% | viability, T/C [36] 58%
> 10000 nM: IC50 (second compound 0.0316 µM) | IC50 (second compound 0.1 µM) | IC50 (second compound 0.316 µM) | IC50 (second compound 1 µM) | IC50 (second compound 3.16 µM) | IC50 (second compound 10 µM)

CC(C)(O)C1CCC(Nc2ccc3ncc(-c4cccc(C(F)(F)F)c4)n3n2)CC1 (stereo unspecified) + CN(C)c1ccc(Nc2c3ccc(NC(=O)CCN4CCCC4)cc3nc3cc(NC(=O)CCN4CCCC4)ccc23)cc1
2090 nM: IC50 (second compound 0.0316 µM)
> 10000 nM: IC50 (second compound 10 µM)
1710 nM: IC50 (second compound 0.316 µM)
inactive: viability, T/C [1] 88% | viability, T/C [2] 80.5% | viability, T/C [3] 92.9% | viability, T/C [4] 71.8% | viability, T/C [5] 38.4% | viability, T/C [6] 33.1% | viability, T/C [7] 90.2% | viability, T/C [8] 87.4% | viability, T/C [9] 81.1% | viability, T/C [10] 68.5% | viability, T/C [11] 45.7% | viability, T/C [12] 39% | viability, T/C [13] 72.7% | viability, T/C [14] 82.4% | viability, T/C [15] 66.1% | viability, T/C [16] 58.5% | viability, T/C [17] 41.3% | viability, T/C [18] 36.9% | viability, T/C [19] 85.6% | viability, T/C [20] 80.2% | viability, T/C [21] 77.2% | viability, T/C [22] 57.6% | viability, T/C [23] 42.1% | viability, T/C [24] 35.4% | viability, T/C [25] 82.2% | viability, T/C [26] 77.2% | viability, T/C [27] 64.3% | viability, T/C [28] 63.5% | viability, T/C [29] 33% | viability, T/C [30] 40.6% | viability, T/C [31] 77.4% | viability, T/C [32] 69.6% | viability, T/C [33] 79.1% | viability, T/C [34] 75.4% | viability, T/C [35] 63.2% | viability, T/C [36] 55.5%
1770 nM: IC50 (second compound 1 µM)
1570 nM: IC50 (second compound 3.16 µM)
2670 nM: IC50 (second compound 0.1 µM)

CC[C@@]1(O)C(=O)OCc2c1cc1n(c2=O)Cc2cc3c(CN(C)C)c(O)ccc3nc2-1 + Cc1[nH]c2ccc(F)cc2c1-c1nc2c3cccnc3c3ncccc3c2[nH]1
79.7 nM: IC50 (second compound 3.16 µM)
53 nM: IC50 (second compound 10 µM)
inactive: viability, T/C (second compound 0.0316 µM, first compound 0.000999 µM) 92.9% | viability, T/C (second compound 0.0316 µM, first compound 0.00316 µM) 95.8% | viability, T/C (second compound 0.0316 µM, first compound 0.00999 µM) 92.8% | viability, T/C [1] 56.9% | viability, T/C (second compound 0.0316 µM, first compound 0.0999 µM) 46.2% | viability, T/C [3] 45.2% | viability, T/C (second compound 0.1 µM, first compound 0.000999 µM) 104% | viability, T/C (second compound 0.1 µM, first compound 0.00316 µM) 90.8% | viability, T/C (second compound 0.1 µM, first compound 0.00999 µM) 86.2% | viability, T/C [7] 61.7% | viability, T/C (second compound 0.1 µM, first compound 0.0999 µM) 48.8% | viability, T/C [9] 36.8% | viability, T/C (second compound 0.316 µM, first compound 0.000999 µM) 99.8% | viability, T/C (second compound 0.316 µM, first compound 0.00316 µM) 88.4% | viability, T/C (second compound 0.316 µM, first compound 0.00999 µM) 85.5% | viability, T/C [13] 71.7% | viability, T/C (second compound 0.316 µM, first compound 0.0999 µM) 49.2% | viability, T/C [15] 43.4% | viability, T/C (second compound 1 µM, first compound 0.000999 µM) 92.7% | viability, T/C (second compound 1 µM, first compound 0.00316 µM) 98.5% | viability, T/C (second compound 1 µM, first compound 0.00999 µM) 76.2% | viability, T/C [19] 74.5% | viability, T/C (second compound 1 µM, first compound 0.0999 µM) 46.4% | viability, T/C [21] 39.8% | viability, T/C (second compound 3.16 µM, first compound 0.000999 µM) 83.7% | viability, T/C (second compound 3.16 µM, first compound 0.00316 µM) 97.3% | viability, T/C (second compound 3.16 µM, first compound 0.00999 µM) 78.4% | viability, T/C [25] 69.2% | viability, T/C (second compound 3.16 µM, first compound 0.0999 µM) 44.4% | viability, T/C [27] 38% | viability, T/C (second compound 10 µM, first compound 0.000999 µM) 69.7% | viability, T/C (second compound 10 µM, first compound 0.00316 µM) 79.2% | viability, T/C (second compound 10 µM, first compound 0.00999 µM) 73.5% | viability, T/C [31] 56.3% | viability, T/C (second compound 10 µM, first compound 0.0999 µM) 42.8% | viability, T/C [33] 40.8%
128 nM: IC50 (second compound 0.316 µM)
102 nM: IC50 (second compound 1 µM)
64.6 nM: IC50 (second compound 0.0316 µM)
86.6 nM: IC50 (second compound 0.1 µM)
